“Also recorded” adds a separate entry of the source. Blank lines part the entries; values can stand above or below the compound they belong to.
How the values were obtained:
GalNAc-T4 [1] = biological target: T1, GalNAc-T4 (Homo sapiens, UniProt Q8N4A0); experiment: Inhibition of glycosylation dependent (GalNAc-glycopeptide) activity of GalNAc-T4, MALDI-TOF time-course; format: biochemical; conditions: […] free sugar
T1 construct: using the GalNAc-T4-sol construct that encodes residues 32-578 inserted into pT7T3U19; made in house; host or cells: High Five insect cells (baculovirus, pAcGP67)
T1 sequence (Q8N4A0 32-578): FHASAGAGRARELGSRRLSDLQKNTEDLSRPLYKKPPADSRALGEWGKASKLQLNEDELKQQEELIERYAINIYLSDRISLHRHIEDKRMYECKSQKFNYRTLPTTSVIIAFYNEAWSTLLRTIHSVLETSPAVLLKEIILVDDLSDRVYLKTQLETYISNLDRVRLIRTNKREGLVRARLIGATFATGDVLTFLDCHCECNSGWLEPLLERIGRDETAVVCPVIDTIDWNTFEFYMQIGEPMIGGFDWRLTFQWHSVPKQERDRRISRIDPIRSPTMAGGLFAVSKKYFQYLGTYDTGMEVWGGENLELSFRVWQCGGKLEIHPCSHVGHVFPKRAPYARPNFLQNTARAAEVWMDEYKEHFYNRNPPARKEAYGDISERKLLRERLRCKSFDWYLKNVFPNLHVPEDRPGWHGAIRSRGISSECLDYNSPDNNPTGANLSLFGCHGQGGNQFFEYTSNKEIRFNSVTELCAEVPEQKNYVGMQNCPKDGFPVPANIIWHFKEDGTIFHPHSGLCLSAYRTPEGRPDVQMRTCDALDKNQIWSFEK
Description: (§1) MALDI-TOF time-course in terminal reactions were performed in reactions of 25 μl containing 2.5 nmol acceptor (glyco)peptide, 40 nmol UDP-GalNAc, and 0.4 μg GalNAc-T4. Sampling of reactions (1 μl) were purified by nano-scale reversed-phase chromatography (Poros R3, PerSeptive Biosystem) and applied directly to the probe with matrix (41). The amount of GalNAc-transferase added was adjusted so that the reaction with the appropriate peptide was near completion in six hours. Reactions were incubated at 37° C. in a shaker bath. At times 0, 2 hours, and 16 hours a 1 μl aliquot was taken and purified. Mass spectra were acquired on either Voyager-DE mass spectrometer equipped with delayed extraction (Perseptive Biosystem Inc.). The matrix used was 2,5-dihydroxybenzoic acid (10 mg/ml, Hewlett-Packard) dissolved in a 2:1 mixture of 0.1% trifluoroacetic acid in 30% aqueous acetonitrile (Rathburn Ltd.).
Quantification of purified proteins was done by Coomassie stained SDS-PAGE and titration of immunoreactivity with the monoclonal antibody, UH6(4G2) (8). […] Wild-type GalNAc-T4 and mutant GalNAc-T4, GalNAc-T4^459H, were analysed with unglycosylated peptides (represented by PSGL-1) or GalNAc glycosylated glycopeptides (represented by GalNAc3TAP25V21) in reactions of 25 μl containing 2.5 nmol acceptor (glyco)peptide, 40 nmol UDP-GalNAc, and 0.4 μg GalNAc-T4. Time-course assays were motioned by MALDI-TOF. Sampling of reactions (1 μl) were purified by nano-scale reversed-phase chromatography (Poros R3, PerSeptive Biosystem) and applied directly to the probe with matrix. Evaluation of inhibition of the glycopeptide specificity of wild-type GalNAc-T4 with free sugars was performed to establish if the lectin domain recognized carbohydrate. […] Further, analysis was performed with 10 mM α-D-GalNAc-1-benzyl, αGlcNAc-benzyl, and fully occupied GalNAc-glycopeptide, GalNAc6TAP25, at 5 mM.

GalNAc-T4 [2] = experiment: Glycosylation independent activity of GalNAc-T4 with naked peptides, MALDI-TOF; format: biochemical, human; conditions: GalNAc-T4 459D or 459H
Description: as §1
Quantification of purified proteins was done by Coomassie stained SDS-PAGE and titration of immunoreactivity with the monoclonal antibody, UH6(4G2) (8). […] Wild-type GalNAc-T4 and mutant GalNAc-T4, GalNAc-T4^459H, were analysed with unglycosylated peptides (represented by PSGL-1) or GalNAc glycosylated glycopeptides (represented by GalNAc3TAP25V21) in reactions of 25 μl containing 2.5 nmol acceptor (glyco)peptide, 40 nmol UDP-GalNAc, and 0.4 μg GalNAc-T4. […]

GalNAc-T2 = biological target: T2, GalNAc-T2 (Homo sapiens, UniProt Q10471); experiment: GalNAc-T2 transferase activities with UDP-GalNAc or UDP-Gal donor (Muc2 acceptor, peptide panel); format: biochemical; conditions: UDP-Gal donor; Muc2 substrate
T2 construct: Soluble, secreted expression constructs of human GalNAc-transferases GalNAc-T1, -T2, -T3, -T4, -T6, -T7, and -T11; made in house; host or cells: insect cells (baculovirus)
T2 sequence (Q10471 52-571 limits assumed): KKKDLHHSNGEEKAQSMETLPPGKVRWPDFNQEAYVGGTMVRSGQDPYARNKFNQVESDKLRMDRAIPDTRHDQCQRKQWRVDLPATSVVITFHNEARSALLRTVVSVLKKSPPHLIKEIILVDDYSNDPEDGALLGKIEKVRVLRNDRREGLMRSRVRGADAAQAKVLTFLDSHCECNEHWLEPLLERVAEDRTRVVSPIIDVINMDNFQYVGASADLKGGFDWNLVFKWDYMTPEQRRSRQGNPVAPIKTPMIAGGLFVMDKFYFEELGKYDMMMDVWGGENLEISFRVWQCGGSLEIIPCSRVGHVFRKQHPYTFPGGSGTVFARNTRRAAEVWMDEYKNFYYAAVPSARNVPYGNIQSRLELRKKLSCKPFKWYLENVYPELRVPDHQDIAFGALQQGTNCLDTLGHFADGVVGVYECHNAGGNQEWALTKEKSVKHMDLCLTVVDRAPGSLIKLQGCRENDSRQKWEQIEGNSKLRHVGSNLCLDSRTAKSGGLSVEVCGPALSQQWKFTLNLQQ
Description: (§2) Standard reaction mixtures (50 μl final volume) contained 25 mM cocadylate (pH 7.4), 10 mM MnCl2, 0.25% Triton X-100, 200 μM UDP-[^14C]-GalNAc (2,000 cpm/nmol) (Amersham), 200-500 μM acceptor peptides. Products were quantified by scintillation counting after chromatography on Dowex-1, octadecyl silica cartridges (Bakerbond), or HPLC (PC3.2/3 or mRPC C2/C18 SC2.1/10 Pharmacia, Smart System). […] Glycopeptides were purified on Supelclean LC-18 columns (1 ml, Supelco), and the number of GalNAc residues incorporated evaluated by MALDI-TOF mass spectrometry. The enzyme sources used were semipurified as previously described by successive sequential ion-exchange chromatographies on Amberlite (IRA95, Sigma) or DEAE Sephacel (Pharmacia), S-Sepharose Fast Flow (Pharmacia), and Mini-S™ (PC 3.2/3, Pharmacia) using the Smart System (Pharmacia) (28). Secreted GalNAc-T4 was obtained from a stably transfected CHO line (CHO/GalNA-T4/21A) (8) grown in roller bottles in HAMS F12 supplemented with 10% Fetal Bovine Serum. The experiments illustrated in FIG. 1 was performed with recombinant secreted GalNAc-T4 obtained from a stably transfected CHO line (8). Experiments illustrated in FIGS. 2 and 3 were performed with secreted GalNAc-T4 expressed in High Five cells grown in serum-free medium (8). Structural analysis of glycopeptides were performed by a combination of PFPA (pentafluoropropionic acid) hydrolysis and MALDI-TOF mass spectrometry as previously described (40). Secreted GalNAc-T7 was obtained from infected High Five™ cells grown in serum-free medium (Invitrogen) in upright roller bottles shaken 140 rpm in waterbaths at 27° C. GalNAc-T7 was not purified by Mini-S as the yields from cationic chromatography were low due to its low pI (6.4).
(§3) Galactosyl transferring activities of GalNAc-T1, -T2, and -T3, were assayed with a panel of acceptor peptides in standard reaction mixtures containing 100 μM UDP-Gal instead of UDP-GalNAc. […] Further, analysis was performed with 10 mM α-D-GalNAc-1-benzyl, αGlcNAc-benzyl, and fully occupied GalNAc-glycopeptide, GalNAC6TAP25, at 5 mM.

GalNAc-T3 = biological target: T3, GalNAc-T3 (Homo sapiens, UniProt Q14435); experiment: GalNAc-T3 transferase activities with UDP-GalNAc or UDP-Gal donor (EA2 acceptor, peptide panel); format: biochemical; conditions: UDP-Gal donor; printed Muc2 substrate
T3 construct: Soluble, secreted expression constructs of human GalNAc-transferases GalNAc-T1, -T2, -T3, -T4, -T6, -T7, and -T11; made in house; host or cells: insect cells (baculovirus)
T3 sequence (Q14435 38-633 limits assumed): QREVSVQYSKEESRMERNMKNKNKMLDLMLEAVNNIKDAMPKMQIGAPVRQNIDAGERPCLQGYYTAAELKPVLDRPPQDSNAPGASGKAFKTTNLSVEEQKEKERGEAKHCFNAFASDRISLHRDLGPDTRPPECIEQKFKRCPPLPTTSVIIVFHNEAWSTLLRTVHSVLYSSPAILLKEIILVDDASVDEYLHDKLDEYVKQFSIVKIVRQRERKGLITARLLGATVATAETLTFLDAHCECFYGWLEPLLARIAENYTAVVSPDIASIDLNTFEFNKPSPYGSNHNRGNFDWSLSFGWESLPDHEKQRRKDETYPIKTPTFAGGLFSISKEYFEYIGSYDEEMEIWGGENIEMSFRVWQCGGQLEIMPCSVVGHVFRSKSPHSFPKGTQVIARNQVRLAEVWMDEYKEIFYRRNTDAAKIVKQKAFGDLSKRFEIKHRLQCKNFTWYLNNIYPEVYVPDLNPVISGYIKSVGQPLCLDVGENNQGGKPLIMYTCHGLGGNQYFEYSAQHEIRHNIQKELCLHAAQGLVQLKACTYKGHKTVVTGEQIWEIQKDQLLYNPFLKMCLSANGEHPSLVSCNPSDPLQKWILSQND
Description: as §2, §3

[3] = system: CHOldlD/MUC1F-clone2 cells; experiment: MUC1 expression in cell lysates, immunoprecipitation and SDS-PAGE western blot; format: cell-based, Chinese Hamster; conditions: 2 mM, 36 hours
Description: We next analysed the expression of MUC1 produced by CHOldlD/MUC1F-clone2 cells by SDS-PAGE western analysis. […] Cells were further treated with 2 mM GalNAcα-benzyl, GlcNAcα-benzyl or no inhibitor. Cells were washed and lysed at 24 or 48 hours and the lysates subjected to immunoprecipitation with monoclonal antibody HMFG2, which broadly recognize MUC1 glycoforms. Immunoprecipitates were analysed by SDS-PAGE and western blot using HMFG2 antibody to detect MUC1 expression. […] In striking contrast, treatment with GalNAcα-benzyl had significant effect after 48 hours. […] This indicates some heterogeneity in glycosylation.
As shown in Examples 8 and 9, polypeptide GalNAc-transferases contain lectin domains with binding properties for GalNAc-peptides including GalNAc-MUC1 peptides. […] GalNAcβ-benzyl, the β-anomeric configuration of GalNAc-benzyl (there is a β linkage between the N-acetylgalactosamine and the benzyl ring), was custom synthesized by Alberta Research Council (Canada), and its structure was confirmed by mass spectrometry and ^1H-NMR. […] Cells were then treated with 2 mM GalNAcα-benzyl, GalNAcβ-benzyl, or GlcNAcα-benzyl as control (GlcNAcα-benzyl was shown in Example 10 to have no effect). Cells were washed and lysed as described above after 36 hours and the lysates subjected to immunoprecipitation with anti-MUC1 monoclonal antibodies HMFG2 or 5E5. […] FIG. 17 illustrates the same experiments as in FIG. 16 except that the detection antibody is 5E5 and only Tn and STn MUC1 glycoforms are visualised.

[4] = system: wild type CHO/MUC1sol-cloneC4; experiment: Secretion of MUC1, western blot of medium; format: cell-based, Chinese Hamster; conditions: 1-2 mM; compared to control treated or non-treated cells
Description: In order to characterize the secreted MUC1 product SDS-PAGE western blot analysis of harvested culture medium of confluent cultures were performed. Ten to twenty μL culture supernatant was analysed directly or treated with 0.1 U/mL neuraminidase (C. Perfringes VI, Sigma) for 30-60 min at 37° C. Samples were mixed with SDS sample buffer, reduced with DTT, and run on precast 4-20% gels (Biorad). As shown in FIG. 9 anti-MUC1 antibodies detected two forms of MUC1 in the medium; a low molecular weight form migrating as 130-140 kd corresponding to unglycosylated product, and a high molecular weight form migrating above 250 kd. The high molecular weight form was sensitive to neuraminidase treatment as evidenced by a marked shift and retardation in migration. […]
Because GalNAcα-benzyl exerts separate effects on O-glycan processing and mucin expression, the use of the novel selective inhibitor of mucin expression, GalNAcβ-benzyl, allow analysis of mucin expression and secretion in different cell line models. […] Most human adenocarcinoma cell lines express and secret mucins and analysis with antibodies to detect protein expression or probes to detect mRNA can reveal the types and quantities of mucins. […] The inhibitory effect on mucin secretion can be quantified by a number of assays known to the skilled in the art including western blot, ELISA, gelfiltration, immunocapture, and other assays.

GalNAc-T7 = biological target: T4, GalNAc-T7 (Homo sapiens, UniProt Q86SF2); experiment: Inhibition of GalNAc-T7 activity with GalNAc2-3EA2 substrate; format: biochemical; conditions: 5 mM
T4 construct: made in house; host or cells: High Five insect cells (baculovirus)
T4 sequence (Q86SF2 30-657 limits assumed): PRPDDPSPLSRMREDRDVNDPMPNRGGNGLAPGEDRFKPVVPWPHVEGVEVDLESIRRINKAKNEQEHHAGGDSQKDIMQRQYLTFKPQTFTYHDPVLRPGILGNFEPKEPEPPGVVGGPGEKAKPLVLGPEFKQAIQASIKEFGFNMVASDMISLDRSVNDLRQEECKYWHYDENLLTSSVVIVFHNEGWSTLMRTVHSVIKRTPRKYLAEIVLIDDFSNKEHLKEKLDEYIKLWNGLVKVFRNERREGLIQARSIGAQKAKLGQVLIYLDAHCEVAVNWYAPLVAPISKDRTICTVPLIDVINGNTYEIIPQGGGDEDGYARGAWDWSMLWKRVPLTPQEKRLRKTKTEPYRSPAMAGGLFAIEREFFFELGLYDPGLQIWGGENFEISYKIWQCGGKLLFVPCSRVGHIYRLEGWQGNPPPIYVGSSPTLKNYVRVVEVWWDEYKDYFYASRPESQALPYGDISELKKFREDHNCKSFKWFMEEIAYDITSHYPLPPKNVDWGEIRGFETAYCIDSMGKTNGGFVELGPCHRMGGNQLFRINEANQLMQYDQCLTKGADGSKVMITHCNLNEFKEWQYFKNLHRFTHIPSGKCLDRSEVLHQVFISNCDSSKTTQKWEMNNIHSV
Description: as §2
GalNAc-T7 activity was analysed with GalNAc glycosylated glycopeptides (represented by GalNAc2-3EA2 (7)) in reactions of 25 μl containing 2.5 nmol acceptor (glyco)peptide, 40 nmol UDP-GalNAc, and purified GalNAc-T7. […]

Inhibition of glycosylation dependent specificity of GalNAc-T4 (GalNAc-T4 [1]): almost completely inhibited
Inhibition of galactosyltransferase activity of GalNAc-T2 (GalNAc-T2): selectively inhibited
Inhibition of galactosyltransferase activity of GalNAc-T3 (GalNAc-T3): selectively inhibited
Structure (SMILES): CC(=O)N[C@H]1C(O)O[C@H](CO)[C@H](O)[C@@H]1O (stereo partly shown) [GalNAc, N-acetylgalactosamine]
Effect on glycosylation independent activities of GalNAc-T4 (GalNAc-T4 [2]): no effect

Structure (SMILES): CC(=O)N[C@H]1[C@H](OCc2ccccc2)O[C@H](CO)[C@H](O)[C@@H]1O [GalNAcβ-benzyl, benzyl-2-acetamido-2-deoxy-β-D-galactopyranoside galactosamine]
MUC1 expression ([3]; blot 5E5, cells grown in GalNAc): strong inhibition; also recorded: same or better reduction in MUC1 expression
MUC1 expression ([3]; blot HMFG2, grown in GalNAc or Gal and GalNAc): same or better reduction in MUC1 expression
SDS-PAGE migration of MUC1 (O-glycosylation) ([3]; cells grown in Gal and GalNAc): no change in the migration of MUC1
Secreted MUC1 in medium [4]: inhibition of secreted MUC1

Inhibition of GalNAc-T7 activity with GalNAc2-3EA2 (GalNAc-T7): significantly inhibited
Structure (SMILES): CC(=O)N[C@H]1[C@@H](OCc2ccccc2)O[C@H](CO)[C@H](O)[C@@H]1O[C@@H]1O[C@H](CO)[C@H](O)[C@H](O)[C@H]1O [Galβ1-3GalNAcα1-bz]

Inhibition of GalNAc-T7 activity with GalNAc2-3EA2 (GalNAc-T7): significantly inhibited
Structure (SMILES): OC[C@H]1O[C@@H](OCc2ccccc2)[C@H](O)[C@@H](O)[C@H]1O [bz-βGal]

— patent publication US7338932B2, “Methods of modulating functions of polypeptide GalNAc-transferases and of screening test substances to find agents herefor, pharmaceutical compositions comprising such agents and the use of such agents for preparing medicaments” (Glycozym APS, priority 2000, dated 2008)
